{"source": "paper PMC7278359", "about": "“Small molecule AX-024 reduces T cell proliferation independently of CD3ϵ/Nck1 interaction, which is governed by a domain swap in the Nck1-SH3.1 domain” (The Journal of Biological Chemistry, 2020)", "key": {"Nck1-SH3.1 [1]": {"biological_target": "T1, Nck1-SH3.1 (Homo sapiens, UniProt P16333)", "T1 construct": "His10-Avi-TEV-Nck1-SH3.1 (residues 1–61, MM 11,847 Da) was biotinylated and immobilized via streptavidin; made in house; host or cells: Escherichia coli BL21 (DE3)", "assay": "SPR binding to immobilized Nck1-SH3.1", "settings": "AX-024 up to 100 μM; 1260 RU; 20 °C, pH 7.8", "method": "SPR experiments were conducted on a T200 Biacore instrument (GE Healthcare, Uppsala, Sweden) at 20 °C in 10 mM HEPES/NaOH, pH 7.8, 150 mM NaCl, 1 mM TCEP. […] Streptavidin is immobilized on the CAP sensor by way of double-strand DNA formation. A ssDNA is covalently coupled to the sensor surface, and a complementary DNA strand, covalently linked to streptavidin, is hybridized. To regenerate the surface, the DNA duplex is dissociated by washing with high-ionic strength solution. […] The reference channel for binding studies contained the same streptavidin-coated surface blocked with biotin.\nFive replicates were performed for each CD3ϵ concentration (Table S1), whereas for the qualitative assessment of the APVA variant, only a single titration was performed.\nSPR equilibrium signals were corrected for the signal in the reference channel and buffer contributions. The resulting SPR amplitudes were plotted as a function of peptide concentration, and a simple binding equation describing a Langmuir adsorption isotherm was fit to the data (GraphPad Prism) to extract the equilibrium dissociation constant Kd. (Eq. 1) RU=RUmax·[peptide]/[peptide]+Kd"}, "[2]": {"test_system": "Zap70 phosphorylation in anti-CD3–stimulated T cells", "settings": "ref [10]; cited from earlier work", "method": "It was shown previously that Nck contributes to TCR signaling after weak stimulation of T cells. […] To obtain a strong dependence of TCR signaling on Nck, different stimulation conditions with low concentrations of anti-CD3 in the absence of co-stimulatory signals were assessed in the presence of AX-024 (Fig. 4). […] At the outset of this study, further development of AX-024, published as a PPI of the Nck1/CD3ϵ interaction ([10]), was anticipated. Unfortunately, we could not replicate all biological effects attributed to this compound. […] Whereas there is an inhibitory effect of AX-024 on T cell proli ..."}, "monomeric Nck1-SH3.1": {"test_system": "monomeric Nck1-SH3.1", "assay": "Ligand-observed NMR with monomeric Nck1-SH3.1", "assay_type": "binding, human", "settings": "50 μM ligand, 10 μM monomeric Nck1-SH3.1 (residues 1–61), pH 6.5, 150 mM NaCl, 27 °C", "method": "NMR spectra were recorded on a Bruker 600-MHz Avance NEO spectrometer equipped with a cryogenic QCI probe head at 27 °C in 25 mM […], 150 mM NaCl. The Topspin 4.0 software (Bruker, Fällanden) was used for spectrometer operation and data processing. For ^1H ligand-observed measurements, a relaxation filtered pulse sequence utilizing a spinlock of 50 ms was applied. 1D spectra were acquired with 128 scans, a sweep width of 26 ppm, and an acquisition time of 2 s. 2D ^1H-^15N HSQC spectra with natural ^15N isotope abundance were recorded over 72 h with a spectral width of 16 ppm and 35 ppm in the proton and nitrogen dimensions, respectively, with 256 increments (complex) and 1000 scans per increment. A relaxation delay of 1 s was used between scans. For the DOSY measurements (reviewed in Ref. [51]), the Bruker pulse sequence ledbpgp2s with a diffusion delay of 50 ms and a gradient length of 600 μs was used. The gradient strength was varied from 5 to 95% to record 16 increments of 512 scans with a sweep width of 18 ppm and a relaxation delay of 1 s.\nSamples for ligand-observed measurements were prepared in 25 mM sodium phosphate buffer, pH 6.5, 150 mM NaCl. One sample contained 50 μM AX-024, and the other contained 50 μM CD3ϵ peptide."}, "Nck1-SH3.1 [3]": {"test_system": "Nck1-SH3.1", "settings": "in vitro; ref [10]; cited from earlier work", "source_text": "(§1) The objective of the present study was to initiate development of an inhibitor of the Nck/TCR interaction, specifically by blocking binding of the first SH3 domain in Nck (Nck1-SH3.1) to the PRS in the CD3ϵ subunit of the TCR."}, "T cell proliferation": {"test_system": "T cell proliferation", "settings": "response to weak antigens; ref [10]; cited from earlier work", "source_text": "as §1"}, "[4]": {"test_system": "CD3ϵ peptide/Nck1-SH3.1 interaction", "assay": "SPR competition with CD3ϵ peptide on immobilized Nck1-SH3.1", "assay_type": "binding, human", "settings": "100 μM AX-024 co-injected with 100 μM CD3ϵ peptide", "method": "SPR experiments were conducted on a T200 Biacore instrument (GE Healthcare, Uppsala, Sweden) at 20 °C in 10 mM HEPES/NaOH, pH 7.8, 150 mM NaCl, 1 mM TCEP. His10-Avi-TEV-Nck1-SH3.1 (residues 1–61, MM 11,847 Da) was biotinylated and immobilized via streptavidin on the surface of either a CAP or a SA sensor, prepared according to the manufacturer's instructions (GE Healthcare). Streptavidin is immobilized on the CAP sensor by way of double-strand DNA formation. A ssDNA is covalently coupled to the sensor surface, and a complementary DNA strand, covalently linked to streptavidin, is hybridized. To regenerate the surface, the DNA duplex is dissociated by washing with high-ionic strength solution. Thus, after each titration, fresh biotinylated Nck1-SH3.1 was immobilized on the sensor surface. For CD3ϵ peptide-binding experiments, the surface density of the Nck1-SH3.1 domain was ∼250 response units (RU), whereas for binding experiments with AX-024 and APVA variant peptides, the surface density of Nck1-SH3.1 was increased to 1260 RU. […]\nBinding of the CD3ϵ-derived peptide […]-NH2 (CD3ϵ residues 173–188; MM 1864.1 Da) or of the APVA variant […]-NH2 (MM 1811.1 Da) to the immobilized Nck1-SH3.1 domain was monitored in a concentration-dependent manner between 0.4 and 100 μM CD3ϵ peptide (200 μM in the case of the APVA variant peptide). […]"}}, "note": "“Also recorded” adds a separate entry of the source."}
{"smiles": "COc1ccc2c(c1)C(c1ccc(F)cc1)=C(CN1CCCC1)CO2.Cl", "note": "[AX-024, 1-((4-(4-fluorophenyl)-6-methoxy-2H-chromen-3-yl)methyl)pyrrolidine hydrochloride]", "values": [{"measurement": "direct binding to immobilized Nck1-SH3.1 by SPR", "setting": "Nck1-SH3.1 [1]", "result": "does not bind to Nck1-SH3.1; also recorded: no direct binding of AX-024 to immobilized Nck1-SH3.1 was detectable"}, {"measurement": "reduction of Zap70 phosphorylation", "setting": "[2]", "result": "reduces Zap70 phosphorylation to the same level as in unstimulated T cells; also recorded: reduces ZAP70 phosphorylation in anti-CD3–stimulated T cells to levels comparable with unstimulated T cells"}, {"measurement": "ligand-observed NMR, spectral change / line broadening", "setting": "monomeric Nck1-SH3.1", "result": "no binding of AX-024 was detected by NMR; also recorded: do not show any spectral changes"}, {"measurement": "physical interaction with Nck1-SH3.1 (SPR and NMR)", "setting": "Nck1-SH3.1 [3]", "result": "appeared to support physical interaction of AX-024 with the Nck1-SH3.1 domain"}, {"measurement": "inhibition of T cell proliferation", "setting": "T cell proliferation", "result": "inhibit T cell proliferation specifically in response to weak antigens"}, {"measurement": "effect on binding of CD3ϵ peptide to Nck1-SH3.1 (competition)", "setting": "[4]", "result": "unaffected by AX-024; also recorded: failed to show an effect on binding of CD3ϵ to immobilized Nck1-SH3.1"}]}
